Paper PMC5051865, “The Effect of Albumin on MRP2 and BCRP in the Vesicular Transport Assay” (PLoS ONE, 2016)
Where two headings read alike, the source gives them in different places. Blank lines part the entries; values can stand above or below the compound they belong to.

Columns and labels:
[1] = target: T1, bovine serum albumin (BSA) (Bos taurus, UniProt P02769); assay: Substrate binding to BSA, rapid equilibrium dialysis (RED); assay type: in vitro ADME; conditions: for fu (± SD): 37°C, 7 h, n = 3
T1 construct: purchased Sigma-Aldrich (St. Louis, MO)
From the text: The fraction of unbound substrate in the presence of BSA was studied with the rapid equilibrium dialysis (RED) device (Thermo Scientific, Waltham, MA). In the RED system, two chambers in a well are separated with dialysis membrane. The transporter substrate (CDCF, E217βG or LY) was placed in the donor chamber in assay buffer with control membrane vesicles in the presence or absence of BSA to mimic the VT assay conditions. The final concentrations of BSA was 0.1% or 1.0%. Plain assay buffer was pipetted into the receiver chambers of all wells until the liquid level of both chambers was equal. […] Samples were incubated at 37°C on an orbital shaker. After 7 hour incubation, a small aliquot was collected from each receiver chamber for analysis. The relative fraction of unbound substrate (fu) was calculated as the ratio of concentrations in the receiver chambers from the samples with and without BSA.
Acetonitrile and phosphate buffers were used as mobile phase and flow rate was 0.5 ml/min.

[2] = target: T2, human MRP2 (Homo sapiens, UniProt Q92887)
From the text: v=Vmax[S]^h/Km^h+[S]^h (2)

[3] = tested on: UGT2A1; parameters: method as in PMID 23372764; conditions: cited from earlier work
[4] = tested on: UGT1A7; parameters: method as in PMID 23372764; conditions: cited from earlier work
[5] = tested on: UGT2B7; conditions: cited from earlier work
[6] = target: T3, human BCRP (Homo sapiens, UniProt Q9UNQ0); assay: Inhibition of LY uptake into BCRP vesicles by oleic acid (VT assay)
T3 sequence (Q9UNQ0 1-655): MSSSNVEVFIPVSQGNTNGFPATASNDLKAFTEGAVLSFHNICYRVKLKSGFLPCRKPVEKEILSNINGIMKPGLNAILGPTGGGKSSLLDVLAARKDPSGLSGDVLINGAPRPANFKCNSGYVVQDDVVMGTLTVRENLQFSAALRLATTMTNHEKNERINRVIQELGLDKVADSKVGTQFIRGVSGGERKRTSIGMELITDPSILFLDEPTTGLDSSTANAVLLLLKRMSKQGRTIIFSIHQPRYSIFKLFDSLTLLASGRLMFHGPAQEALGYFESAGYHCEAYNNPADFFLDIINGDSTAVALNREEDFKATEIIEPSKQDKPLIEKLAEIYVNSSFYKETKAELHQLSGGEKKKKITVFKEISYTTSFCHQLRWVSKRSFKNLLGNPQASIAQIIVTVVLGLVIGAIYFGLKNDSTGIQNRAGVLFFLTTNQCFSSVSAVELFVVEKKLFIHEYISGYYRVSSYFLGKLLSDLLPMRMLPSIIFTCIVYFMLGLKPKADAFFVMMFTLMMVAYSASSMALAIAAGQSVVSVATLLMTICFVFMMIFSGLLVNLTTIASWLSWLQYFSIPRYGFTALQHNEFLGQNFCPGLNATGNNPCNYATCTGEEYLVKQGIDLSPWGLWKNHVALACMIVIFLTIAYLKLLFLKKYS
Experimental: (§1) The modulation of MRP2 and BCRP uptake by fatty acid oleic acid was also studied with the VT assay. The assay was performed as above, but oleic acid was present at various concentrations. The probe concentration in these studies was 5 μM for CDCF and 50 μM for LY. Plain vehicle (70% ethanol) was used as a control.
(§2) The oleic acid concentration required for 50% inhibition (IC50), was calculated from the concentration-response data using four parameter logistic regression, Response=Responsemin+Responsemax−Responsemin/1+([I]/IC50)^h (3) where response is the control normalized ATP-dependent uptake (%), Responsemin and Responsemax represent the plateaus corresponding to minimal and maximal normalized uptake (%), [I] is the concentration of inhibitor (μM), IC50 is the inhibitor concentration required for a response half-way between minimal and maximal response (μM) and h is the Hill coefficient. The Responsemin term was constrained to be larger than zero, where zero indicates full abolishment of uptake.

[7] = target: T2, human MRP2; assay: Inhibition of CDCF uptake into MRP2 vesicles by oleic acid (VT assay); conditions: 5 μM CDCF
Experimental: as §1, §2

[8] = tested on: BCRP; parameters: method as in PMID 22819932; conditions: Caco-2 cells, oleic acid > 1 mM; cited from earlier work
[9] = tested on: BCRP; parameters: method as in PMID 24342797; conditions: sandwich-cultured hepatocytes, oleic acid > 1 mM; cited from earlier work
[10] = tested on: CYPs, human liver microsomes; parameters: method as in PMID 18256202, PMID 21305272; conditions: cited from earlier work
[11] = target: T3, human BCRP; conditions: BCRP vesicles; for increase in maximal LY uptake by BCRP: 0.1% BSA vs no BSA; for Km: cholesterol loaded, best fit value (± standard error)
Experimental: Sf9 cells were cultured in suspension in HyQ SFX-Insect MP medium (Thermo Fisher Scientific, Waltham, MA) supplemented with 5% fetal bovine serum. Cells were infected with recombinant baculovirus-DNA and harvested and washed with phosphate buffered saline (PBS) approximately 60 hours after infection. Membranes were prepared from the cells using a modification of the Chu et al. [30] method as described in detail in [29]. To form the vesicles, the suspension was passed 10 times through a LIPEX™ Extruder (Northern Lipids Inc., Burnaby, BC, Canada) or 20 times through a 27 gauge needle. Protein concentration was measured using the Bio-Rad protein assay (Bio-Rad Laboratories Inc., Hercules, CA). Vesicles were stored at -75°C at protein concentrations of 3.5–5 mg/ml.
To improve the dynamic range of the assay, BCRP membranes were loaded with cholesterol similarly to Telbisz et al. [31], by incubating the membranes on ice for 20 minutes in the presence of the water-soluble cholesterol complex at a total concentration of 2.5 mM cholesterol. Excess of the complex was removed by diluting the mixture and centrifugation at 100 000 g at + 4°C for 1 h 15 min. The remaining membrane pellet was resuspended in membrane buffer (50 mM Tris–HCl pH 7.0, 50 mM mannitol, 2 mM EGTA). The resulting cholesterol concentration in the vesicles was roughly 100 μg/mg total protein as measured using the Amplex Red Cholesterol kit (Life Technologies, Carlsbad, CA).
The assay was carried out as a modification of the PREDIVEZ™ Vesicular Transport Kit protocol (SOLVO Biotechnology, Szeged, Hungary). In short, vesicle stocks were thawed and diluted with assay buffer (40 mM MOPS–Tris pH 7.0, 60 mM KCl, 6 mM MgCl2). The substrate at various concentrations was added subsequently with 0.1% or 1.0% BSA (w/v), or an equivalent volume of deionized water for the control. […] The well plate was preincubated at 37°C for 5–10 minutes after which half of the samples were treated with prewarmed plain assay buffer (non-ATP control), and the other half with prewarmed Mg-ATP-solution (final concentration 4 mM). […] Transport was terminated with ice cold washing buffer (40 mM MOPS-Tris pH 7.0 and 70 mM KCl). Samples were quickly transferred to the MultiScreenHTS-FB Plate Glass fiber 1.0 μm / 0.65 μm Durapore filter plate (Millipore, Molsheim, France). Wells were immediately washed five times with 200 μl washing buffer and dried. 0.1 M sodium hydroxide was used to elute LY and CDCF, which were detected by fluorescence measurement.
ATP-dependent transport was calculated as the difference between uptake in the presence and absence of ATP. All assays were performed in triplicates on a 96-well plate. Curve fitting to the data was performed with GraphPad Prism 6.04 (GraphPad Software Inc., La Jolla, CA). Substrate data was fitted with the Michaelis-Menten equation v=Vmax[S]/Km+[S] (1) where v is the velocity of ATP-dependent transport, Vmax is the maximal transport velocity, [S] is the substrate concentration and Km is the Michaelis-Menten constant.

[12] = MRP2 vesicles, 0.1% BSA vs no BSA

T2 sequence (Q92887 whole entry): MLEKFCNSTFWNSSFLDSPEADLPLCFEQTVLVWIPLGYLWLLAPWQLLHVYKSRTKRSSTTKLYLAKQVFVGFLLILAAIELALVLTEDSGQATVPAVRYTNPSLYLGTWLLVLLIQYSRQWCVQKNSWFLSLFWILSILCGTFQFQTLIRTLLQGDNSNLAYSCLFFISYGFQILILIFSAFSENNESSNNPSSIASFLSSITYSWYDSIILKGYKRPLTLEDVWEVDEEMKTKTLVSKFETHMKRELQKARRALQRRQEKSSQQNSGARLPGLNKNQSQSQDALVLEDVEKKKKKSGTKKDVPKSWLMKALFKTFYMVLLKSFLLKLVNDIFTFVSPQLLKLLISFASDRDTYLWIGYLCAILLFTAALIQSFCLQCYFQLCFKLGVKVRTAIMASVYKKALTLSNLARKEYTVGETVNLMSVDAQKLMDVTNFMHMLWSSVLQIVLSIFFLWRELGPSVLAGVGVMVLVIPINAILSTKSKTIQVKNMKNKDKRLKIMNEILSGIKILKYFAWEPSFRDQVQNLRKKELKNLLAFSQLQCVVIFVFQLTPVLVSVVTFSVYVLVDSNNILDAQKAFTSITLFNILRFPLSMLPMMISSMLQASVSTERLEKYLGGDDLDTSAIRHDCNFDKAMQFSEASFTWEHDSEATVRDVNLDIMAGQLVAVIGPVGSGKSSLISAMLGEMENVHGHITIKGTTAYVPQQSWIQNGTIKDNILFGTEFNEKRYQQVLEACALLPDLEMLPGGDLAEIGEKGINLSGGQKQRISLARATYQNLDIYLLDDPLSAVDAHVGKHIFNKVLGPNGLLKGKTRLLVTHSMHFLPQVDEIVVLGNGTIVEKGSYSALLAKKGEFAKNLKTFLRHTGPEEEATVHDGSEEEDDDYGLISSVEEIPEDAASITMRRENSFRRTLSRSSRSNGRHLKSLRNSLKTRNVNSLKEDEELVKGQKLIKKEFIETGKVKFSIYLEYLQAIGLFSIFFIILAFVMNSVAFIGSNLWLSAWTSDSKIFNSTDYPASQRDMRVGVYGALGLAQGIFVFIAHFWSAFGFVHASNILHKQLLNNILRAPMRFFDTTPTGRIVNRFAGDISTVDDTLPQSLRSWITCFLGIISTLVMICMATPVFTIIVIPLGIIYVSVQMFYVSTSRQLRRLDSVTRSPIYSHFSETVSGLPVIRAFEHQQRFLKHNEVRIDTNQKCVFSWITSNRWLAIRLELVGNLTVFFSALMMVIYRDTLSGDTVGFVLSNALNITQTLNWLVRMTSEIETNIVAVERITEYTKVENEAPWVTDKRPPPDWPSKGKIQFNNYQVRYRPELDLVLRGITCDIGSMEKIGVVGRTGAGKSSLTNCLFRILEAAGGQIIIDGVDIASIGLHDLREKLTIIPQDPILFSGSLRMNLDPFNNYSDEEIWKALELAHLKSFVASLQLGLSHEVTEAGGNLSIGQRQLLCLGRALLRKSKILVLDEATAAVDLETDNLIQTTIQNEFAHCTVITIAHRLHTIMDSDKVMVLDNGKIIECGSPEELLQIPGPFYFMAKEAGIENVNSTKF
T1 sequence (P02769 25-607): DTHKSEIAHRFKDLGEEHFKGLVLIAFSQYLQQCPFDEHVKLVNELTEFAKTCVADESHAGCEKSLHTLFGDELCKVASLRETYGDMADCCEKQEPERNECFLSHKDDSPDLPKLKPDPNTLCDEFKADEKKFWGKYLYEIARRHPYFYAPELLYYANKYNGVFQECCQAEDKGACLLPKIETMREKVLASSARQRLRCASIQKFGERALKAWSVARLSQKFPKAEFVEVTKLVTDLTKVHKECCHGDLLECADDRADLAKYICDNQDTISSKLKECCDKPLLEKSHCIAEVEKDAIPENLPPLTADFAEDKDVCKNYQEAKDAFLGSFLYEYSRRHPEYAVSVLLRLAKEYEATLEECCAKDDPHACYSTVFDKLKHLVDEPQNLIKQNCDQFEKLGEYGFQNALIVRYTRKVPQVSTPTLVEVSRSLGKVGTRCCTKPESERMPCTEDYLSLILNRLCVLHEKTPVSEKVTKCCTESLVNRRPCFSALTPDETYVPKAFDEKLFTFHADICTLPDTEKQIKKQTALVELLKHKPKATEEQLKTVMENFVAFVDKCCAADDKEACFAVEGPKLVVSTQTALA

average fu ([1]; 0.1% BSA, average over concentrations): 0.94
fu (± SD) ([1]; 0.1% BSA, substrate 1 μM): 0.92 (± 0.02)
fu (± SD) ([1]; 0.1% BSA, substrate 5 μM): 0.94 (± 0.02)
fu (± SD) ([1]; 0.1% BSA, substrate 50 μM): 0.96 (± 0.01)
fu (± SD) ([1]; 1.0% BSA, substrate 5 μM): 0.43 (± 0.02)
fu (± SD) ([1]; 1.0% BSA, substrate 50 μM): 0.53 (± 0.02)
fu (± SD) ([1]; 1.0% BSA, substrate 200 μM): 0.73 (± 0.03)
increase of Vmax of uptake into MRP2 vesicles ([2]; 0.1% BSA vs no BSA): 2 fold
increase of Km by BSA [2, 12]: ~63%
increase of Vmax by BSA [2, 12]: roughly 110%
Vmax in the presence of 0.1% BSA ([2]; MRP2 vesicles, Vmax in the absence of BSA set at 100%): 210.4 (± 21.1) %
Compound: 5(6)-carboxy-2’,7’-dichlorofluorescein [CDCF]

Compound: Oc1ccc2cc[nH]c2c1 [6-hydroxyindole]
decrease in Km caused by albumin [3]: > 20 fold

fu (± SD) ([1]; 0.1% BSA, substrate 15 μM): 0.96 (± 0.04)
fu (± SD) ([1]; 0.1% BSA, substrate 50 μM): 1.00 (± 0.03)
fu (± SD) ([1]; 0.1% BSA, substrate 150 μM): 0.98 (± 0.04)
increase of Km by BSA [2, 12]: 36%
Compound: C[C@]12CC[C@@H]3c4ccc(O)cc4CC[C@H]3[C@@H]1CC[C@@H]2O[C@@H]1O[C@H](C(=O)O)[C@@H](O)[C@H](O)[C@H]1O [E217βG]

Compound: CCN(CC)C(=O)/C(C#N)=C/c1cc(O)c(O)c([N+](=O)[O-])c1 [entacapone]
increase in Vmax caused by albumin [4]: up to 7 fold

Compound: Nc1nnc(-c2cccc(Cl)c2Cl)c(N)n1 [lamotrigine]
increase in affinity caused by albumin [5]: 7 fold

IC50 [6]: 28.2 µM
effect on substrate uptake [7]: decreased the uptake of substrates
Compound: CCCCCCCC/C=C\CCCCCCCC(=O)O [oleic acid]
effect on BCRP-mediated transport of mitoxantrone [8]: decrease BCRP-mediated transport of mitoxantrone
effect on BCRP-mediated transport of rosuvastatin [9]: decrease BCRP-mediated transport

Compound: CC(=O)O[C@H]1C(=O)[C@@]2(C)[C@H]([C@H](OC(=O)c3ccccc3)[C@]3(O)C[C@H](OC(=O)[C@H](O)[C@@H](NC(=O)c4ccccc4)c4ccccc4)C(C)=C1C3(C)C)[C@]1(OC(C)=O)CO[C@@H]1C[C@@H]2O [paclitaxel]
decrease in Km of hydroxylation caused by albumin [10]: 3 fold

Compound: O=C1NC(=O)C(c2ccccc2)(c2ccccc2)N1 [phenytoin]
decrease in Km of hydroxylation caused by albumin [10]: 4 fold

Compound: Cc1cn([C@H]2C[C@H](N=[N+]=[N-])[C@@H](CO)O2)c(=O)[nH]c1=O [zidovudine]
increase in affinity caused by albumin [5]: 10 fold

Compound: Lucifer yellow [LY]
fu (± SD) ([1]; 0.1% BSA, substrate 20 μM): 0.98 (± 0.01)
fu (± SD) ([1]; 0.1% BSA, substrate 200 μM): 0.98 (± 0.03)
increase in maximal LY uptake by BCRP [11]: 28%
increase in maximal LY uptake by BCRP ([11]; listed as Lucifer yellow): 30%
Vmax in the presence of 0.1% BSA ([11]; Vmax in the absence of BSA set at 100%): 127.5 (± 6.2) %
Km ([11]; read-out: Km with 0.1% BSA, 0.1% BSA): 33.5 µM
Km ([11]; read-out: Km without BSA): 31.2 µM
